From patent publication US12643871B2, “Aryl formamide compound containing chiral sulfur oxide or salt thereof, preparation method, herbicidal composition and use thereof” (Qingdao Kingagroot Chemical Compound Co., Ltd., priority 2019, dated 2026)

Columns and labels:
Type in all cases: in vivo
[1] = test system: Green Setaria viridis; test: Comparison experiment (post-emergence) against racemate / S configuration
Description: (§1) The above growth control rates are fresh weight control rates.
(§2) Experiment on weeding effect in post-emergence stage: monocotyledonous and dicotyledonous weed seeds (Descurainia sophia, Capsella bursa-pastoris, Galium aparine, Stellaria media, Lithospermum arvense, Rorippa indica, Alopecurus aequalis, Beckmannia syzigachne, Sclerochloa dura, Phleum paniculatum, Bromus japonicus, Aegilops tauschii, Phalaris arundinacea, Amaranthus retroflexus, Chenopodiaceae, Commelina communis, Sonchus arvensis, convolvulus arvensis, Cirsium setosum, Solanum nigrum, Acalypha australis, Digitaria sanguinalis, Echinochloa crusgalli, Setaria viridis, Setaria glauca, Leptochloa chinensis, Monochoria vaginalis, Sagittaria trifolia, Scirpus juncoides, Cyperus rotundus, Cyperus iria, Cyperus difformis, Fimbristylis, Portulaca oleracea, Xanthium sibiricum, Pharbitis nil) and major crop seeds (wheat, corn, rice, soybean, cotton, oilseed rape, millet, sorghum, potato, sesame, ricinus) were placed in plastic pots filled with soil, then covered with 0.5-2 cm of soil, allowed to grow in a good greenhouse environment. […] The tested compounds of the present invention were respectively dissolved in acetone, then added with Tween 80 and 1.5 liter/ha of emulsifiable concentrate of methyl oleate as synergist, diluted with a certain amount of water to obtain a solution with a certain concentration, and sprayed with a spray tower onto the plants. […]
(§3) If there is no clear marker, the post-seedling test conditions are the same as above, and the experimental results are shown in Tables 4-7.

[2] = test system: Digitaria sanguinalis; test: as above; settings: Table 6, post-seedling test conditions
Description: as §1
(§4) Experiment on weeding effect in post-emergence stage: monocotyledonous and dicotyledonous weed seeds (Descurainia sophia, Capsella bursa-pastoris, Galium aparine, Stellaria media, Lithospermum arvense, Rorippa indica, Alopecurus aequalis, Beckmannia syzigachne, Sclerochloa dura, Phleum paniculatum, Bromus japonicus, Aegilops tauschii, Phalaris arundinacea, Amaranthus retroflexus, Chenopodiaceae, Commelina communis, Sonchus arvensis, convolvulus arvensis, Cirsium setosum, Solanum nigrum, Acalypha australis, Digitaria sanguinalis, Echinochloa crusgalli, Setaria viridis, Setaria glauca, Leptochloa chinensis, Monochoria vaginalis, Sagittaria trifolia, Scirpus juncoides, Cyperus rotundus, Cyperus iria, Cyperus difformis, Fimbristylis, Portulaca oleracea, Xanthium sibiricum, Pharbitis nil) and major crop seeds (wheat, corn, rice, soybean, cotton, oilseed rape, millet, sorghum, potato, sesame, ricinus) were placed in plastic pots filled with soil, then covered with 0.5-2 cm of soil, allowed to grow in a good greenhouse environment. After 2 weeks of sowing, the test plants were treated in the 2 leaf stage. The tested compounds of the present invention were respectively dissolved in acetone, then added with Tween 80 and 1.5 liter/ha of emulsifiable concentrate of methyl oleate as synergist, diluted with a certain amount of water to obtain a solution with a certain concentration, and sprayed with a spray tower onto the plants. After the application, the plants were cultured for 15 days in the greenhouse, and then the experimental results of the weeding were counted. The doses of the used compounds were 500, 250, 125, 60, 30, 15 g/ha, and the averages were obtained by repeating for three times.
as §3

[3] = test system: Alopecurus japonicas; test: as above; settings: Table 6, post-seedling test conditions
Description: as §1, §4, §3

[4] = test system: Digitaria sanguinalis; test: as above; settings: 30 g/ha; 3-4 weeks after sowing, 4-5 leaf-stage of weed, 25DAA
[5] = test system: Leptochloa chinensis; test: as above
Description: as §1, §2, §3

[6] = test system: Abutilon theophrasti; test: as above; settings: 30 g/ha; 3-4 weeks after sowing, 4-5 leaf-stage of weed, 25DAA
Description: as §1, §2, §3

[7] = test system: Rice(Longyang 16); test: Comparison experiment (post-emergence), crop safety on direct seeding rice
Description: as §1, §4, §3
Longyang 16 is an important cultivated variety representative of long-grain fragrant rice in northeast China. Long-grain fragrant rice is sensitive to herbicides and prone to drug damage, especially HPPD herbicides such as mesotrione and benzobicylon. […] It was not consistent with the well-known structure-activity relationship that aryloxyphenoxypropionic acid herbicides and phenoxypropionic acid herbicides in effective form have high activity to weeds and heavy damage to crops, and in ineffective form have almost no activity.

[8] = Table 6, post-seedling test conditions
[9] = 60 g/ha, 3-4 weeks after sowing, 4-5 leaf-stage of weed, 25DAA

Row | SMILES | Results of comparison experiment, Green Setaria viridis (30 g/ha) [1, 8] [%] | Results of comparison experiment, Digitaria sanguinalis (30 g/ha) [2] [%] | Results of comparison experiment, Alopecurus japonicas (120 g/ha) [3] [%] | further results
1 | CSc1c(C(=O)Nc2nnc(C)o2)ccc(C(F)(F)F)c1[S+](C)[O-] (stereo not shown) [Control Compound F′] | 5 | 0 | 0 | 
2 | CSc1c(C(=O)Nc2nnc(C)o2)ccc(C(F)(F)F)c1[S@@+](C)[O-] [Compound 547] | 80 | 90 | 40 | 
3 | CSc1c(C(=O)Nc2nnc(C)o2)ccc(C(F)(F)F)c1[S+](C)[O-] (stereo not shown) [Control Compound E′] | 40 | 40 | 15 | 
4 | CCC[S+]([O-])c1c(C(F)(F)F)ccc(C(=O)Nc2nnc(C)o2)c1F (single isomer, unassigned) [Control Compound A] |  |  |  | Results of comparison experiment, Digitaria sanguinalis (30 g/ha) [4]: 0%; Results of comparison experiment, Leptochloa chinensis (60 g/ha) [5, 9]: 0%; Results of comparison experiment, Leptochloa chinensis (125 g/ha) ([5]; 125 g/ha, 3-4 weeks after sowing, 4-5 leaf-stage of weed, 25 DAA (Table 5)): 10%; activity against key weeds such as Leptochloa chinensis, in words ([5]; summary of Table 5): lower activity; Results of comparison experiment, Green Setaria viridis (30 g/ha) ([1]; 3-4 weeks after sowing, 4-5 leaf-stage of weed, 25 DAA (Table 5)): 0%; Results of comparison experiment, Green Setaria viridis (60 g/ha) [1, 9]: 15%; Results of comparison experiment, Abutilon theophrasti (30 g/ha) [6]: 0%; Results of comparison experiment, Rice(Longyang 16) (250 g/ha) ([7]; 250 g/ha, 1.5-2 leaf-stage of direct seeding rice variety Longyang 16, 25 DAA): 15%; Results of comparison experiment, Rice(Longyang 16) (500 g/ha) ([7]; 500 g/ha, 1.5-2 leaf-stage of direct seeding rice variety Longyang 16, 25 DAA): 25%; safety to rice (Longyang 16), in words ([7]; summary of Table 5): not safe
5 | CCSc1c(C(F)(F)F)ccc(C(=O)Nc2nnc(C)o2)c1SC [Control Compound D′] | 20 |  | 0 | pest or weed control at 30 g/ha ([2]; Digitaria sanguinalis, post-emergence): 20%
